Reference: patent US7482008B1, “Human T cell reactive feline protein (TRFP) isolated from house dust and uses therefor” (Merck Patent GmbH, priority 1989, dated 2009)

What was measured:
[1] = tested on: T cells from cat allergic patients; experiment: T cell proliferation of TRFP-primed T cells from cat allergic patients (tritiated thymidine), Example 5 Part A; assay type: cell-based, human
Protocol: Peripheral blood mononuclear cells (PBMC) were purified from 60 ml of heparinized blood from cat allergic patients. PBMC were subsequently treated as described below, although in individual cases, the length of time of cultivation with IL-2 and/or IL-4 and the specific peptides used for stimulation varied.
10 ml of PBMC from patient 131 at 10^6 /ml were cultured at 37° C. for 7 days in the presence of 5 μg purified TRFP/ml RPMI-1640 supplemented with 5% pooled human AB serum. Viable cells were purified by Ficoll-Hypaque centrifugation and cultured for three weeks at 5 units recombinant human IL-2/ml and 5 units recombinant human IL-4/ml. The resting T cells were then restimulated (secondary) with 5 μg TRFP at 2×10^5/ml in the presence of irradiated (3500 Rads) autologous PBMC at a concentration of 5×10^5/ml for three days, purified by Ficoll-Hypaque centrifugation and grown in 5 units IL-2 and 5 units IL-4/ml for two weeks. For assay, 2×10^4 resting secondary T cells were restimulated (tertiary) in the presence of 5×10^4 irradiated (3500 Rads) autologous PBMC or 2×10^4 transformed B cells (20,000 Rads) with various concentrations of allergens or their fragments in a volume of 200 microliters in a 96-well round bottom assay plates for 3 days. Each well then received 1 μCurie tritiated (methyl) thymidine for 16 hours. The counts incorporated were collected onto glass fiber filters and processed for liquid scintillation counting.
Antigens used: T cell reactive feline protein (TRFP), Hollister-Stier cat epithelium skin test reagent (CST), IPC ragweed pollen extract (pollen), and synthetic peptides derived from TRFP protein sequence (See FIGS. 6 and 7). Positive T cell proliferation is for these experiments was considered to be greater than 2.5 times the media control (T cells and antigen presenting cells alone).
Alternatively, PBMC were treated as follows: The primary stimulated cells were cultured in IL-2/IL-4 for two weeks. The resting T cells derived from this culture were tested in a secondary assay with some, but not all, of the above allergens. […] This type of epitope analysis has allowed the definition of T cell epitopes present in TRFP.

[2] = tested on: Patient 155 TRFP secondary primed T cells; experiment: In vitro induction of T cell non-responsiveness, then proliferation on antigenic challenge; assay type: cell-based, human; conditions: label = tolerance treatment
Protocol: Patient 155 TRFP secondary primed T cells (2.5×10^6) were rested and cultured with (2.5×10^6) irradiated autologous Epstein Barr Virus transformed B cells (EBV) in 1 ml of complete RPMI with 10% AB serum in 12×75 mm polypropylene snap cap tubes and increasing amounts of antigen over 5 consecutive days. The T cell cultures were exposed to 5 μg/ml purified native TRFP on day 0 and 5 μg/ml, 10 μg/ml, 10 μg/ml and 20 μg/ml thereafter. The peptide treated cultures were exposed to 1 μg/ml peptide on day 0 and 1 μg/ml, 1 μg/ml, 2 μg/ml and 5 μg/ml thereafter. In addition, 0.5 ml of fresh media was replaced on day 2. The cells were then washed and set up for a proliferation assay with 2×10^4 T cells and 2×10^4 irradiated (2500 Rad) autologous EBV and various doses of antigen. T cell proliferation was measured as incorporation of tritiated thymidine at day 9.

[3] = tested on: Human T cell lines from four cat allergic patients; experiment: IL-2 and IL-4 production by TRFP-primed T cell lines of four cat allergic patients; assay type: cell-based; conditions: panel of four patients 688, 730, 738, 807
Protocol: Human T cell lines from four cat allergic patients (patients 688, 730, 738, and 807) were isolated. Heparinized peripheral blood specimens were obtained from cat allergic patients and the mononuclear cell fraction was purified by Ficoll-Hypaque centrifugation. An aliquot of these cells (2×10^6) was stimulated in vitro with purified native TRFP (10 μg/ml) and grown in the presence of recombinant IL-2 and IL-4. The T cell line was then rested in culture until ready for secondary proliferation assay. Two×10^4 cells were cultured in 200 μl medium containing various concentrations of test antigens with 5×10^4 γ-irradiated autologous Epstein-Barr Virus transformed cells as antigen presenting cells. After 3 days of culture, each microwell was pulsed overnight with 1 μCurie tritiated thymidine, and the amount of radioactivity incorporated was measured by liquid scintillation counting. The stimulation index (S.I.) for each antigen was then calculated. […] The IL-2 in the medium was measured by proliferation of the IL-2 dependent T cell line, […]. […] IL-4 was measured by an ELISA purchased from R&D Systems, Minneapolis, Minn. […] The stimulation indices for IL-2 and IL-4 production were calculated by dividing the amount of IL-2 or IL-4 contained in the medium from stimulated T cells divided by the amount of IL-2 or IL04 released by non-stimulated T cells.

mice = experiment: Specificity of peptide-induced unresponsiveness (peptide Y vs MI-05); assay type: in vivo, mouse; conditions: subcutaneous injection in saline
human IgE = experiment: Western blot and ELISA of human IgE binding to affinity purified TRFP
From the text: A protein preparation was extracted from the contents of vacuum cleaner bags by a method based on that of M. D. Chapman and co-workers. Chapman, M. D. et al., J. Immunol., 140(3): 812-818 (1988). Monoclonal antibody reactive with Fel d I, produced by Chapman and co-workers, was used to identify a protein in the preparation. de Groot, H. et al., J. Allergy Clin. Immunol., 82:778-786 (1988). Selected monoclonal antibodies (designated 1G9 and 6F9) that recognize Fel d I native protein were used to affinity purify a protein, which is referred to as human T cell reactive feline protein (TRFP) (also referred to as VCB or vacuum cleaner bag protein) from a house dust sample. This was carried out, using known techniques, by producing the desired monoclonal antibody, isolating it in large quantities from ascites and immobilizing it on Sepharose 4B (Pharmacia). The protein preparation was extracted from vacuum cleaner bags of house dust obtained from several homes with cats. Aqueous vacuum cleaner bag extract was first subjected to gel filtration and decolorization and, subsequently, affinity chromatography purification. Aqueous vacuum cleaner bag extract was passed over the monoclonal antibody-containing column and a protein species was eluted. […] The affinity purified TRFP was subjected to a number of protein chemical procedures to derive primary amino sequence data. […]

Substance	T cell stimulatory activity ([1]; summary in words of Tables 2 and 3)	T cell proliferation following antigenic challenge ([2]; challenge with Fel 8-3)	T cell proliferation following antigenic challenge ([2]; challenge with Ragweed Peptide)	T cell proliferation following antigenic challenge ([2]; challenge with TRFP)	T cell proliferation following antigenic challenge ([2]; no antigenic challenge (—))	IL-4 versus IL-2 production [3]	PI ([1]; Table 2, chain #1 TRFP peptides, average SI of responding patients multiplied by percent of patients with positive response (SI >2.5))	SI ([1]; Table 2, chain #1 TRFP peptides, average cpm with antigen divided by cpm of T cells and APC alone, responding patients)	responses to MI-05 (mice)	responsiveness to peptide Y (mice)	human IgE binding (human IgE)
peptide X: amino acid residues 7-30 from chain 1 of TRFP (SEQ. ID. NO: 17); Table 2 lists Fel 8-3 as 7-33 (KRDVDLFLTGTPDEYVEQVAQYKALPV)	powerful activity	3,850 cmp	5,130 cmp	12,320 cmp	1,270 cmp	–	–	–	–	–	–
NARILKNCVDAKMTEEDKE [Fel 4, TRFP chain 1 amino acids 37-55]	–	–	–	–	–	induces more IL-4 than IL-2	601	7.7	–	–	–
peptide Y: amino acid residues 29-55 from chain 1 of TRFP (SEQ. ID. NO: 18) (KALPVVLENARILKNCVDAKMTEEDKE)	–	–	–	–	–	–	–	–	did not affect responses to MI-05	decreased responsiveness to peptide Y	–
TRFP: human T cell reactive feline protein affinity purified from house dust; two covalently linked chains	–	36,030 cmp	6,670 cmp	33,160 cmp	2,190 cmp	favors IL-4 as opposed to IL-2	–	–	–	–	bind human IgE
